Test results reported in patent publication EP1247803A2, “Indolinone compounds suitable for modulation of protein kinases” (Sugen, Inc., priority 1996, dated 1998).

Experiments:
FLK-1 receptor = target: T1, FLK-1 receptor (Mus musculus, UniProt P35918); test: FLK-1 ELISA (kinase activity of the FLK-1 receptor in FLK-1/NIH3T3 cells, VEGF stimulated); format: cell-based
T1 construct: expressed in transfected cells; host or cells: NIH3T3 C7#3
Summary of the method: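 An ELISA using affinity-purified rabbit anti-FLK-1 antiserum on anti-rabbit IgG-coated plates measured VEGF-stimulated FLK-1 kinase activity. NIH3T3 C7#3 cells carrying FLK-1 were serum-starved (0.1% FBS) overnight, then exposed to compound (final 1:200 dilution, 0.5% DMSO) for two hours at 37 °C.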

PDGF-R = PDGF-R (Homo sapiens, UniProt P09619); test: PDGF-R ELISA; format: cell-based
Text: A PDGF-R ELISA is described in International Patent Publication No. WO 96/40116, published December 19, 1996 by Tang et al.

MET = MET biochemical kinase assay; design: species or system human; concentration or dose not given beside the values
Summary of the method: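 Colorimetric signal from an HRP-linked anti-phosphotyrosine antibody with TMB measures phosphate incorporated into immobilised MET. The receptor is pulled from lysates by a polyclonal antibody against its cytoplasmic domain, then reacts in ATP- and metal-containing buffer with test compound.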

Chain of PDGF-R (P09619 33-1106, species assumed): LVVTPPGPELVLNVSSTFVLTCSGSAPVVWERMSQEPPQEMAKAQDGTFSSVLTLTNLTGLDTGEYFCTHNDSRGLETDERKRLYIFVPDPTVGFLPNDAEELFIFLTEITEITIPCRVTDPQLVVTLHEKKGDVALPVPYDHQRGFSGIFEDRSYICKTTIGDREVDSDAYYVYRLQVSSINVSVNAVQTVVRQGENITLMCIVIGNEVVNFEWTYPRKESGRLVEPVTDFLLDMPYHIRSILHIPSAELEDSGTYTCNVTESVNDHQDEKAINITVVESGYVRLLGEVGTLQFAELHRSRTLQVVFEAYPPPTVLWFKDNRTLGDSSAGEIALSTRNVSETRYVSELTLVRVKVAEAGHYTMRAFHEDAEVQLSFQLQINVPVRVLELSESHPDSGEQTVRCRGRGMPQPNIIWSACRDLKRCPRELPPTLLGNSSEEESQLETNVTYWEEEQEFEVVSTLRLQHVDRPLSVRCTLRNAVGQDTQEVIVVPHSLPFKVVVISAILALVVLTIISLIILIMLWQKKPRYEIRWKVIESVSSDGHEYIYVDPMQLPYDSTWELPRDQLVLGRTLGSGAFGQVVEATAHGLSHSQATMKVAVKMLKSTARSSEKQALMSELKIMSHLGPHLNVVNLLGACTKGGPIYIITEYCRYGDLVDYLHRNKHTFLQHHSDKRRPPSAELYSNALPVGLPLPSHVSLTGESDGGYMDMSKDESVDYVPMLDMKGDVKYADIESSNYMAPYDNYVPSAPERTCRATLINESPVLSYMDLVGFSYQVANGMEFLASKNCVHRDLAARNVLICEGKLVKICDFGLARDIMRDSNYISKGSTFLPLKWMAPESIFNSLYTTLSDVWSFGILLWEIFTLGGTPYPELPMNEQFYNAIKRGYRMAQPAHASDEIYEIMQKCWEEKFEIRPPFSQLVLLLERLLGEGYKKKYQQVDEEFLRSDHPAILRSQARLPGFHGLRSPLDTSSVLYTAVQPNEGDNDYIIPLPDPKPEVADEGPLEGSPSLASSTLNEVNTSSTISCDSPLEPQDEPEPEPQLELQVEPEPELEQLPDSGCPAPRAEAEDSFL
T1 sequence (P35918 20-1345): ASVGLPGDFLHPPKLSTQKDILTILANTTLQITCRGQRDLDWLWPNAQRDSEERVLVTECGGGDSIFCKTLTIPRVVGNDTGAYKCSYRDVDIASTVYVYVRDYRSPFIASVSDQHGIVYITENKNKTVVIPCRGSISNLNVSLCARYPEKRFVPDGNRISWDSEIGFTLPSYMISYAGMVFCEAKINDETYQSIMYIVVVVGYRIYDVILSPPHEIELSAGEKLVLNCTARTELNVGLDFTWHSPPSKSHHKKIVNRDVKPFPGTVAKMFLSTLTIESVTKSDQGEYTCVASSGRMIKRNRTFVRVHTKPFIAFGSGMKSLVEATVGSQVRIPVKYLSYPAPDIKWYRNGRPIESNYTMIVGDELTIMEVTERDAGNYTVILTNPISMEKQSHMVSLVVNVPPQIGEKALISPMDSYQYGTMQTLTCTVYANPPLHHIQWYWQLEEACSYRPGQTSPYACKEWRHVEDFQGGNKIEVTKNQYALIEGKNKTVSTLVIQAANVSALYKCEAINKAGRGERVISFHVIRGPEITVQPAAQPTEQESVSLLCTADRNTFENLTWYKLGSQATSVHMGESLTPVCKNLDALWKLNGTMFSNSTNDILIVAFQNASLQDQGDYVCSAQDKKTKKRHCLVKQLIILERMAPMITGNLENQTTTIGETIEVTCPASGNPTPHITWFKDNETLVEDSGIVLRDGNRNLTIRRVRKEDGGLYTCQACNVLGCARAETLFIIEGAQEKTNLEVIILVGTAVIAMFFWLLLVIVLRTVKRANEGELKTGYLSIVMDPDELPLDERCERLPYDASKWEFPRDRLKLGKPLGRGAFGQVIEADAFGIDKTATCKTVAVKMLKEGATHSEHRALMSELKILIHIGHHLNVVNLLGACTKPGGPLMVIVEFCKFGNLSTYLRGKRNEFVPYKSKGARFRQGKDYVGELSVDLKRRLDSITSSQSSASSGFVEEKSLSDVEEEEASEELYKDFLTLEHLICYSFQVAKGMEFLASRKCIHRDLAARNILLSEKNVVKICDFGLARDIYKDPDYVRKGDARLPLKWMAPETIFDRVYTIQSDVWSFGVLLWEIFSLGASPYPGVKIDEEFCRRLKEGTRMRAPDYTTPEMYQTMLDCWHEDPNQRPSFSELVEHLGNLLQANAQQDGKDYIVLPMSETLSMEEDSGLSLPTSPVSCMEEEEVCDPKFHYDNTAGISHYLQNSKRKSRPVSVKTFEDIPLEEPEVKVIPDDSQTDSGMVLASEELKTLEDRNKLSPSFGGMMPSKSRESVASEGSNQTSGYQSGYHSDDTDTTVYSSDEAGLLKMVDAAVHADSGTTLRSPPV

SMILES | Fik Kinase %Inhibition (FLK-1 receptor) | PDGF Kinase %Inhibition (PDGF-R) [%] | Met Kinase % Inhibition (MET) [%]
O=C1Nc2ccc(CCCl)cc2C1=Cc1cccc(Br)c1 [10723/G10] | . 3.5% | -27.8 | 40.7
CCc1ccc(C=C2C(=O)Nc3c(Br)cc(Br)cc32)o1 [10724/A10] | 1.6% | 28.6 | 83.8
Cc1cc(C=C2C(=O)Nc3c(Br)cc(Br)cc32)[nH]n1 [10725/A05] | -13.9% | 13.1 | 47.5
O=C1Nc2ccc(I)cc2C1=Cc1ccc(N2CCOCC2)cc1 [10725/B08] | -24.1% | 29.4 | 66.7
Cc1csc2sc(C=C3C(=O)Nc4ccc(S(=O)(=O)Nc5ccc(C(F)(F)F)cc5)cc43)c(C)c12 [10724/E11] | 5.1% | 5.0 | 39.3
O=C1Nc2ccc(S(=O)(=O)Nc3ccc(C(F)(F)F)cc3)cc2C1=Cc1ccc([N+](=O)[O-])c(O)c1 [10724/E04] | 55.2% | -32.6 | 93.3
O=C1Nc2ccc(I)cc2C1=Cc1ccc(O)c([N+](=O)[O-])c1 [10724/B03] | -48.9% | 14.7 | 51.0
O=C1Nc2c(Br)cc(Br)cc2C1=Cc1cc2c3c(c1O)CCCN3CCC2 [10724/A05] | -15.2% | 5.0 | 68.4
Cc1csc2sc(C=C3C(=O)Nc4ccc(CCCl)cc43)c(C)c12 [10724/G11] | 6.8% | -29.1 | 11.2
Cc1csc2sc(C=C3C(=O)Nc4c(Br)cc(Br)cc43)c(C)c12 [10724/A11] | 12.8% | 29.3 | 27.2
CNS(=O)(=O)c1ccc2c(c1)C(=Cc1cccn1-c1ccc(Cl)cc1)C(=O)N2 [10724/D09] | 0.9% | 18.9 | 16.1
CNS(=O)(=O)c1ccc2c(c1)C(=Cc1sc3scc(C)c3c1C)C(=O)N2 [10724/D11] | 14.9% | 29.3 | 20.3
O=C1Nc2ccc(CCCl)cc2C1=Cc1cc2c3c(c1O)CCCN3CCC2 [10724/G05] | -0.1% | -10.3 | 61.0
Cc1c(Br)ccc2c1C(=Cc1cc(C(C)C)c(O)c(C(C)C)c1)C(=O)N2 [10724/C06] | -1.5% | 34.9 | 15.4
CCc1ccc(C=C2C(=O)Nc3ccc(S(=O)(=O)NC)cc32)o1 [10724/D10] | 3.7% | 38.3 | 59.6
Cc1cc(C=C2C(=O)Nc3ccc(I)cc32)[nH]n1 [10725/B05] | -61.0% | 44.7 | 68.3

SMILES | Fik Kinase %Inhibition (FLK-1 receptor) | PDGF Kinase %Inhibition (PDGF-R) [%] | Met Kinase % Inhibition (MET) [%]
O=C1Nc2ccc(CCCl)cc2C1=Cc1cc2ccccc2o1 [10724/G07] | -1.9% | -41.6 | 2.3
CNS(=O)(=O)c1ccc2c(c1)C(=Cc1ccc(N(C)C)c3ccccc13)C(=O)N2 [10724/D02] | 12.4% | -9.6 | 37.5
Cc1c(Br)ccc2c1C(=Cc1cccn1-c1ccc(Cl)cc1)C(=O)N2 [10724/C09] | 9.3% | 20.3 | 5.3
CNS(=O)(=O)c1ccc2c(c1)C(=Cc1ccc([N+](=O)[O-])c(O)c1)C(=O)N2 [10724/D04] | 0.5% | -1.3 | 70.5
CNS(=O)(=O)c1ccc2c(c1)C(=Cc1ccc(O)c([N+](=O)[O-])c1)C(=O)N2 [10724/D03] | 0.1% | -15.2 | 18.2
O=C1Nc2c(Br)cc(Br)cc2C1=Cc1ccc(O)c([N+](=O)[O-])c1 [10724/A03] | -7.8% | 0.1 | 30.7
Cc1c(Br)ccc2c1C(=Cc1sc3scc(C)c3c1C)C(=O)N2 [10724/C11] | 10.3% | 23.0 | 4.9
O=C1Nc2ccc(S(=O)(=O)Nc3ccc(C(F)(F)F)cc3)cc2C1=Cc1ccc(O)c([N+](=O)[O-])c1 [10724/E03] | 10.6% | 14.7 | 85.8
O=CN1CCN(c2ccc(C=C3C(=O)Nc4c(Br)cc(Br)cc43)cc2)CC1 [10725/A07] | -12.3% | 17.9 | 59.3
CC(C)c1cc(C=C2C(=O)Nc3ccc(CCCl)cc32)cc(C(C)C)c1O [10724/G06] | 0.1% | -6.9 | 20.3
CCc1ccc(C=C2C(=O)Nc3ccc(CCCl)cc32)o1 [10724/G10] | 7.0% | -15.9 | 62.8
O=C1Nc2ccc(CCCl)cc2C1=Cc1ccc(O)c([N+](=O)[O-])c1 [10724/G03] | -8.4% | -2.7 | 36.7
CCc1ccc(C=C2C(=O)Nc3ccc(S(=O)(=O)Nc4ccc(C(F)(F)F)cc4)cc32)o1 [10724/E10] | 7.3% | 34.9 | 84.0
CCc1ccc(C=C2C(=O)Nc3ccc(I)cc32)o1 [10724/B10] | 8.5% | 9.8 | 95.0
CNS(=O)(=O)c1ccc2c(c1)C(=Cc1cc3c4c(c1O)CCCN4CCC3)C(=O)N2 [10724/D05] | -1.6% | 35.6 | 36.1
